Experimental data: patent US9983218B2, “Indole and indoline derivatives and methods of use thereof” (AbbVie Inc., priority 2008, dated 2018)
Read-outs that look alike come from different tables or passages of the source.

Tested on: SK-N-SH human neuroblastoma cells
Experiment: Serum deprivation/JC-1 mitochondrial membrane potential (MMP) assay
Format: cell-based
Conditions: Homo sapiens; for Emax: read-out: JC-1 max %
Experimental: SK-N-SH human neuroblastoma cells obtained from American Type Culture Collection (Rockville, Md.) were maintained in the log phase of growth in Minimal Essential Media (MEM), 10% heat inactivated fetal calf serum and 100 units/mL antibiotic-antimycotic (AA). Cells were cultured and maintained in a humidified incubator at 37° C. under 5% CO2 and 95% air. Cells were trypsinized (0.25%) and subcultured every 3 days and used from 15-18 passages. All cell culture supplies were obtained from Invitrogen (Carlsbad, Calif.).
SK-N-SH cells were plated 2-3 days in advance at a concentration of 50,000 cells/well onto collagen coated black-walled 96 well plates (Becton-Dickinson, Bedford, Mass.) in a total volume of 200 μL. On day of experimental treatment, the media containing serum was aspirated from each well and rinsed once with MEM/1% AA without serum. The cells then were incubated overnight in 100 μL of MEM/1% AA (no serum) with and without dimebolin or novel chemical entities overnight for ˜18 hours. The following day, JC-1 dye (5,5′,6,6′-tetrachloro-1,1′,3,3′-tetraethylbenzimidazolcarbocyanide) was diluted 1:10 into MEM media according to the JC-1 Mitochondrial Membrane Potential Assay Kit: (Cayman Chemical Company, Ann Arbor, Mich.) and then 10 μL of the JC-1 dye solution was added to each well. The plates were centrifuged for 5 minutes at 400×g at room temperature followed by 35 minute incubation at 37° C. The plates were washed twice with 200[…] μL of provided Assay Buffer followed an addition of 100 μL of Assay Buffer to each well. The plates were read with an excitation and emission of 560 nm and 595 nM for red fluorescence and with an excitation and emission of 485 nm and 535 nM for green fluorescence to determine the final JC-1 value taking the red to green fluorescence ratio. This assay is based on change in mitochondrial membrane potential (MMP) using this lipophilic cationic dye, JC-1, by monitoring the changes in the ratio of red to green fluorescence as the MMP depolarizes. This change in MMP reflects the health of the cell with healthy, viable cells have a high JC-1 ratio and high MMP whereas apoptotic, unhealthy cells have a low JC-1 ratio or low MMP.
For the ability of compounds to reverse the stress due to serum deprivation and increase the JC-1 ratio, the percent maximal intensity in JC-1 ratio was normalized to that induced by the peak value for 10 μM dimebolin and plotted against the compound concentration to calculate EC50 values and to control for plate-to-plate variability. Concentration-response data were analyzed using GraphPad Prism (San Diego, Calif.); the EC50 values were derived from a single curve fit to the mean data of n=2-3, in duplicates.
All compounds were dissolved in dimethyl sulfoxide at 10 mM stock solutions and tested at a concentration that the dimethyl sulfoxide levels never exceeded 1%.

[1] = SK-N-SH, percent maximal intensity in JC-1 ratio normalized to 10 μM dimebolin
[2] = SK-N-SH cells, serum deprivation ~18 hours, JC-1 ratio normalized to peak value for 10 μM dimebolin, single curve fit to mean data of n=2-3, read-out: EC50

Row | Compound | Emax [1] [%] | EC50 [2] [µM] | EC50 (SK-N-SH, 18 h) [µM] | Emax (SK-N-SH) [%]
1 | Cc1ccc2c(c1)c1c(n2S(=O)(=O)c2cccnc2)CC2CCC1N2C (centres unmarked) [Example 77, 2,11-dimethyl-5-(pyridin-3-ylsulfonyl)-5,6,7,8,9,10-hexahydro-7,10-epiminocyclohepta[b]indole] | 223 | 9.22 |  | 
2 | Cc1ccc(CCn2c3c(c4ccccc42)C2CCC(C3)N2C)cn1 (centres unmarked) [Example 78, 11-methyl-5-[2-(6-methylpyridin-3-yl)ethyl]-5,6,7,8,9,10-hexahydro-7,10-epiminocyclohepta[b]indole] | 211 | 9.69 |  | 
3 | Cc1ccc(CCn2c3c(c4cc(F)ccc42)C2CCC(C3)N2C)cc1 (centres unmarked) [Example 84, 2-fluoro-11-methyl-5-[2-(4-methylphenyl)ethyl]-5,6,7,8,9,10-hexahydro-7,10-epiminocyclohepta[b]indole] | 173 | 6.76 |  | 
4 | CN1C2CCC1c1c(n(CCc3ccc(Cl)cc3)c3ccc(Br)cc13)C2 (centres unmarked) [Example 87, 2-bromo-5-[2-(4-chlorophenyl)ethyl]-11-methyl-5,6,7,8,9,10-hexahydro-7,10-epiminocyclohepta[b]indole] | 139 | 3.33 |  | 
5 | Cc1ccc(S(=O)(=O)n2c3c(c4cc(Br)ccc42)C2CCC(C3)N2C)cc1 (centres unmarked) [Example 90, 2-bromo-11-methyl-5-[(4-methylphenyl)sulfonyl]-5,6,7,8,9,10-hexahydro-7,10-epiminocyclohepta[b]indole] | 176 | 3.43 |  | 
6 | COc1ccc2c(c1)c1c(n2CCc2ccc(C)nc2)CC2CCC1N2C (centres unmarked) [Example 91, 2-methoxy-11-methyl-5-[2-(6-methylpyridin-3-yl)ethyl]-5,6,7,8,9,10-hexahydro-7,10-epiminocyclohepta[b]indole] | 129 | 6.33 |  | 
7 | COc1cccc2c3c(n(CCc4ccc(Cl)cc4)c12)CC1CCC3N1C (centres unmarked) [Example 96, 5-[2-(4-chlorophenyl)ethyl]-4-methoxy-11-methyl-5,6,7,8,9,10-hexahydro-7,10-epiminocyclohepta[b]indole] | 169 | 4.41 |  | 
8 | CN1C2CCC1c1c(n(CCc3ccc(Cl)cc3)c3ccc(OC(F)(F)F)cc13)C2 (centres unmarked) [Example 97, 5-[2-(4-chlorophenyl)ethyl]-11-methyl-2-(trifluoromethoxy)-5,6,7,8,9,10-hexahydro-7,10-epiminocyclohepta[b]indole] |  |  | 5.13 | 164
9 | CN1C2CCC1c1c(n(CCc3ccc(Cl)cc3)c3ccc(C(F)(F)F)cc13)C2 (centres unmarked) [Example 98, 5-[2-(4-chlorophenyl)ethyl]-11-methyl-2-(trifluoromethyl)-5,6,7,8,9,10-hexahydro-7,10-epiminocyclohepta[b]indole] | 176 | 7.26 |  | 
10 | Cc1ccc(CCn2c3c(c4cc(C(C)C)ccc42)C2CCC(C3)N2C)cn1 (centres unmarked) [Example 99, 2-isopropyl-11-methyl-5-[2-(6-methylpyridin-3-yl)ethyl]-5,6,7,8,9,10-hexahydro-7,10-epiminocyclohepta[b]indole] | 138 | 3.07 |  | 
11 | Cc1ccc(CCn2c3c(c4cc(C5CC5)ccc42)C2CCC(C3)N2C)cn1 (centres unmarked) [Example 103, 2-cyclopropyl-11-methyl-5-[2-(6-methylpyridin-3-yl)ethyl]-5,6,7,8,9,10-hexahydro-7,10-epiminocyclohepta[b]indole] | 180 | 4.17 |  | 
12 | Cc1ccc(CCn2c3c(c4cc(C(C)(C)C)ccc42)C2CCC(C3)N2C)cn1 (centres unmarked) [Example 104, 2-tert-butyl-11-methyl-5-[2-(6-methylpyridin-3-yl)ethyl]-5,6,7,8,9,10-hexahydro-7,10-epiminocyclohepta[b]indole] | 178 | 4.16 |  | 
13 | CN1C2CCC1c1c(n(CCc3ccc(Cl)cc3)c3ccc(C(C)(C)C)cc13)C2 (centres unmarked) [Example 105, 2-tert-butyl-5-[2-(4-chlorophenyl)ethyl]-11-methyl-5,6,7,8,9,10-hexahydro-7,10-epiminocyclohepta[b]indole] | 129 | 3.88 |  | 
